The results in this text go back to a melting point compilation (Tetko et al.; mined from patent text by program, amines drawn as free bases though some values may be those of a salt).

Some results are limits rather than exact numbers.

Compound `CCN(CC)C(=O)c1nc(CCl)n(-c2ccc(Cl)cc2C(=O)c2ccccc2)n1` displayed a melting point of 118 to 119 °C.
With `CCCc1cc2cc(O)c(F)cc2c(Oc2ccc(/C=C/C(=O)O)cc2)c1-c1ccccc1` the figure was 118 to 120 °C; with `Cc1ccc2[nH]c(=O)n(C(C)(C)C(=O)O)c(=O)c2c1`, 268 to 271 °C; with `O=C(NCCO)c1cc(-c2cccc3nn(Cc4cccc(C(F)(F)F)c4)cc23)ccn1`, 131 to 132 °C.
In the case of `Clc1ccc(N2CCN(CCCc3c4c(nn3-c3ccccn3)CCCC4)CC2)cc1` it was 101 to 103 °C.
As for `c1ccc2c(c1)CCC21CCN(CCCCN2CCC3(CCc4ccccc43)CC2)CC1`, the melting point is 113 to 115 °C.
In the case of `Nc1cc(=O)n(Cc2cccc(I)c2)[nH]1` it was 186 °C; in that of `C=CCc1cc(COC(=O)C(C)(C)C)ccc1C#CC1(O)CN2CCC1CC2` (stereo not drawn), 73 °C.
Compound `Cc1oc(-c2ccc(O)cc2)nc1CCOc1ccc(N)cc1` had a melting point of 184 to 185 °C.
In the case of `CCCCCCc1nc2cc3c(cc2[nH]1)NC(=O)C3(C)C` it was 233 to 234 °C.
Turning to `COC(=O)C=CC1=C(N)CCC1=O`, the melting point was 278 to 279 °C.
As to `COc1ccc2cc(C(C)COC(=O)c3cc(O)c4c(c3)C(=O)c3cccc(O)c3C4=O)ccc2c1` (stereo not drawn), the melting point was in the range of 147 to 151 °C.
Consider `O=[N+]([O-])c1ccc2oc(CCC(F)(F)F)cc2c1`, for which the melting point fell in the range of 70 to 71 °C.
In the case of `Nc1nccc(-c2c[nH]c3nccc(C#Cc4ccccc4)c23)n1` it was more than 210 °C.
With `O=C(c1ccccc1)c1nc2ncccc2o1` the figure was 151 to 153 °C; with `O=C(O)C1CCc2c(c3cc(OCc4ccccc4)ccc3n2C(=O)c2ccccc2)C1` (stereo not drawn), 193 to 194 °C.
In the case of `COc1ccc(-c2nc(-c3cccn3C)[nH]c2-c2ccc(OC)cc2)cc1` it was 110 °C; in that of `O=C1c2ccccc2C(=O)N1CCCCn1ccnc1`, 75 to 77 °C; in that of `COc1cc2c(=O)n(NS(C)(=O)=O)c(=O)[nH]c2cc1[N+](=O)[O-]`, more than 280 °C.
Regarding `COc1ccc(/C=C/c2cc(/C=C/c3ccc4cc[nH]c4c3)n[nH]2)c(OCc2ccccn2)c1`, the melting point fell in the range of 107 to 115 °C.
For the compound `CC(Oc1ccc(C(C)(C)C)cc1C(C)(C)C)C(=O)O` (stereo not drawn), the melting point lay within 106 to 111 °C.
With `Nc1c2c(nc3ccccc13)C1CCC2C1` (stereo not drawn) the figure was 185 to 186 °C; with `C=Cn1nnn(-c2cc(OC)c(Cl)cc2Cl)c1=O`, 142 to 143 °C; with `COc1ccc(C2=NCCc3c(C)cccc32)cc1`, 83 to 83.5 °C.
In the case of `Cc1oc(-c2ccc(C(F)(F)F)cc2)cc1C(=O)Nc1cccc(C=O)c1` it was 183 to 184 °C.
In the case of `CN(C)c1ccc([N+](=O)[O-])cc1Cl` it was 71 to 73 °C; in that of `CC1(C)CC(=O)CC(C)(C)N1C#N`, 75 to 76 °C.
`O=[N+]([O-])c1ccc(Sc2ncc(Cl)cn2)s1`: the melting point lay in the range of 141 to 143 °C.
Regarding `COc1cc2ncc(N[C@H]3CC[C@@H](O)CC3)nc2cc1OC`, the melting point was in the range of 65 to 67 °C.
For the compound `COc1cccc(CO)c1OCc1ccccc1`, the melting point fell in the range of 58 to 60 °C.
With `COc1ccc2c(c1)CCC(=O)N(C(C)=O)CCCC2=O` the figure was 156 to 158 °C.
For `CN(C)C=Nc1nc(OCc2ccc(F)cc2)ncc1F`, the melting point is 113 to 115 °C.
The compound `COC(=O)CCCC(=O)NS(=O)(=O)c1ccc(N)cc1` displayed a melting point of more than 260 °C.
With `O=C1N(Cc2ccc(C(F)(F)F)o2)c2cc3c(cc2C12COc1cc4c(cc12)OCCO4)OCCO3` (stereo not drawn) the figure was 176 to 178 °C; with `O=C(CCCN1CCN(c2ncc3ccccc3n2)CC1)c1ccc(F)cc1`, 129 to 131 °C; with `CCOC(=O)c1cn2cnc3ccccc3c2c1C(=O)OCC`, 125 to 126 °C.
With `NC(=NO)c1cccc(-c2nc3sccn3c2-c2ccnc(NC3CCCN(S(=O)(=O)c4ccc(Cl)cc4)C3)n2)c1` (stereo not drawn) the figure was 272 to 273 °C; with `O=C(Nc1cc(-c2c(-c3ccc(F)cc3)nc3cccnn23)ccn1)c1ccncc1`, 226 to 227 °C.
In the case of `COc1ccc(N2CCSC2=N)c([N+](=O)[O-])c1` it was 156 °C; in that of `CCOC(=O)c1noc(C(Cc2ccccc2)NC(=O)OC(C)(C)C)n1` (stereo not drawn), 72 to 76 °C.
In turn, `CSC1C(=O)c2ccccc2N1C(=O)c1ccccc1` (stereo not drawn) registered a melting point of 126 to 128 °C.
With `CNC(=O)[C@@H]1C=CCN1S(=O)(=O)c1ccc(Cl)c(COc2cccc3c(-n4ccnc4)cc(C)nc23)c1Cl` the figure was 132 °C; with `CCOC(=O)C(=O)Nc1cccc(NC(=O)C(=O)OCC)c1Cl`, 162 °C.
With `Nc1ccc(S(=O)(=O)Nc2ccn(CC3CC3)c(=O)n2)cc1` the figure was 87 to 95 °C; with `c1ccc(Nc2nc3ccccc3n3cc(-c4ccccc4)cc23)cc1`, 172 °C; with `CC(=O)NC[C@H]1CN(c2ccc(N3CCC4(CC3)NCCS4)c(F)c2)C(=O)O1`, 150 to 152 °C.
In the case of `O=C(C#Cc1ccc(-c2ccc(Cl)cc2)cn1)Nc1ccc(CN2CCC(O)CC2)cc1` it was 186 to 190 °C; in that of `CN(C)c1cccc(-c2nc3ncccc3o2)c1`, 208 to 209 °C; in that of `CCOc1nn(-c2ccc(C(F)(F)F)cn2)cc1CCCOc1cccc(OC(C)(C)C(=O)O)c1`, 120 to 121 °C.
Turning to `COC(=O)c1ccc(OC)cc1S(=O)(=O)Cl`, the melting point fell in the range of 69 to 72 °C.
The compound `C=C1c2ccccc2C(n2cncc2C(=O)OC)C1(C)C` (stereo not drawn) displayed a melting point of 125 to 126 °C.
In the case of `CCCCNc1cc(CN(Cc2ccccc2)C(=O)c2ccccc2)cc(S(N)(=O)=O)c1Oc1ccccc1` it was 137 to 138 °C.
With `Nc1cc(SCc2ccc(F)cc2)nn1-c1c(Cl)cc(C(F)(F)F)cc1Cl` the figure was 112 to 113 °C; with `CC(C)(C)OC(=O)N[C@H]1C[C@@H](CON2C(=O)c3ccccc3C2=O)C1`, 120 to 122 °C.
With `CCOc1nn(-c2ccc(C(F)(F)F)cn2)cc1CCCOc1c(CC(=O)O)cccc1OC` the figure was 122 to 123 °C; with `NS(=O)(=O)C1CCCCC1=O` (stereo not drawn), 118 to 119 °C.
In turn, `O=C(c1ccc(O)c(Cl)c1Cl)c1ccnn1Cc1ccccc1` registered a melting point of 131 to 133 °C.
In the case of `CCC(C(=O)c1ccc(Cl)cc1)n1ncn(-c2ccc(N3CCN(c4ccc(O)cc4)CC3)cn2)c1=O` (stereo not drawn), the melting point came out at 186 °C.
The compound `CCOCc1ncccc1CN(CCn1ccc2oc(C)cc2c1=O)Cc1ccc2c(c1)N(C)C(=O)C(C)(C)C(=O)N2CC` returned a melting point of 104 to 106 °C.
With `O=Cc1cc2ccc3ccsc3c2c2ccccc12` the figure was 173 to 177 °C; with `CCOC(=O)Nc1ncc(-c2nc3ccccc3c(=O)n2-c2ccccc2OC)s1`, 263 to 264 °C; with `COc1ccc(CCNCC(O)c2cc(OCc3ccccc3)cc(OCc3ccccc3)c2)cc1OC` (stereo not drawn), 85 to 86 °C.
In the case of `CCOc1ccc(-c2nc(CCC(=O)O)cs2)cc1OCC`, the melting point is 111 to 114 °C.

One may read the melting point as the temperature of the solid-liquid transition.
